Experimental data: the supplement of paper PMC13380429

How the values were obtained:
Details in all cases: 72 h
U2OS [1] = assay: drug sensitivity score (DSS) for viability; higher = more toxic; extreme values may be limits of the assay
HepG2 [2] = assay: as above
Caco-2 [3] = assay: as above
Vero E6 [4] = assay: as above
Calu-3 [5] = assay: as above
U2OS [6] = assay: cell viability relative to DMSO; higher = less toxic
HepG2 [7] = assay: as above
Caco-2 [8] = assay: as above
Vero E6 [9] = assay: as above
Calu-3 [10] = assay: as above
U2OS [11] = assay: relative viability EC50 (midpoint between 100% and the lowest measured viability); higher = less toxic
HepG2 [12] = assay: as above
Caco-2 [13] = assay: as above
Vero E6 [14] = assay: as above
Calu-3 [15] = assay: as above

Compound: Cc1nn(C)c2c1C(c1ccc(C(F)(F)F)cc1)C(C#N)=C(N)O2 (stereo not given) [BQU57]
- drug sensitivity score (U2OS [1]): 0
- drug sensitivity score (HepG2 [2]): 0
- drug sensitivity score (Caco-2 [3]): 0
- drug sensitivity score (Vero E6 [4]): 0
- drug sensitivity score (Calu-3 [5]): 0
- cell viability (U2OS [6]; 1 nM): 98%
- cell viability (U2OS [6]; 10 nM): 101%
- cell viability (U2OS [6]; 100 nM): 98.8%
- cell viability (U2OS [6]; 1000 nM): 100%
- cell viability (U2OS [6]; 10000 nM): 102%
- cell viability (HepG2 [7]; 1 nM): 109%
- cell viability (HepG2 [7]; 10 nM): 97.9%
- cell viability (HepG2 [7]; 100 nM): 103%
- cell viability (HepG2 [7]; 1000 nM): 99%
- cell viability (HepG2 [7]; 10000 nM): 102%
- cell viability (Caco-2 [8]; 1 nM): 94.3%
- cell viability (Caco-2 [8]; 10 nM): 93.5%
- cell viability (Caco-2 [8]; 100 nM): 95%
- cell viability (Caco-2 [8]; 1000 nM): 97.1%
- cell viability (Caco-2 [8]; 10000 nM): 89.2%
- cell viability (Vero E6 [9]; 1 nM): 104%
- cell viability (Vero E6 [9]; 10 nM): 104%
- cell viability (Vero E6 [9]; 100 nM): 103%
- cell viability (Vero E6 [9]; 1000 nM): 101%
- cell viability (Vero E6 [9]; 10000 nM): 99.7%
- cell viability (Calu-3 [10]; 1 nM): 98.7%
- cell viability (Calu-3 [10]; 10 nM): 104%
- cell viability (Calu-3 [10]; 100 nM): 98.7%
- cell viability (Calu-3 [10]; 1000 nM): 108%
- cell viability (Calu-3 [10]; 10000 nM): 104%
- relative viability EC50 (U2OS [11]): > 10 µM
- relative viability EC50 (HepG2 [12]): > 10 µM
- relative viability EC50 (Caco-2 [13]): > 10 µM
- relative viability EC50 (Vero E6 [14]): > 10 µM
- relative viability EC50 (Calu-3 [15]): > 10 µM

Compound: O=[N+]([O-])c1cc(Cl)ccc1S(=O)(=O)c1ccccc1 [BTB1]
- drug sensitivity score (U2OS [1]): 0
- drug sensitivity score (HepG2 [2]): 0
- drug sensitivity score (Caco-2 [3]): 0
- drug sensitivity score (Vero E6 [4]): 0
- drug sensitivity score (Calu-3 [5]): 0
- cell viability (U2OS [6]; 1 nM): 98.5%
- cell viability (U2OS [6]; 10 nM): 95.4%
- cell viability (U2OS [6]; 100 nM): 102%
- cell viability (U2OS [6]; 1000 nM): 103%
- cell viability (U2OS [6]; 10000 nM): 102%
- cell viability (HepG2 [7]; 1 nM): 99.2%
- cell viability (HepG2 [7]; 10 nM): 103%
- cell viability (HepG2 [7]; 100 nM): 82.7%
- cell viability (HepG2 [7]; 1000 nM): 88.1%
- cell viability (HepG2 [7]; 10000 nM): 108%
- cell viability (Caco-2 [8]; 1 nM): 95.8%
- cell viability (Caco-2 [8]; 10 nM): 90.2%
- cell viability (Caco-2 [8]; 100 nM): 97.5%
- cell viability (Caco-2 [8]; 1000 nM): 98.6%
- cell viability (Caco-2 [8]; 10000 nM): 100%
- cell viability (Vero E6 [9]; 1 nM): 97%
- cell viability (Vero E6 [9]; 10 nM): 94.4%
- cell viability (Vero E6 [9]; 100 nM): 93.9%
- cell viability (Vero E6 [9]; 1000 nM): 97.9%
- cell viability (Vero E6 [9]; 10000 nM): 101%
- cell viability (Calu-3 [10]; 1 nM): 97.1%
- cell viability (Calu-3 [10]; 10 nM): 98.2%
- cell viability (Calu-3 [10]; 100 nM): 107%
- cell viability (Calu-3 [10]; 1000 nM): 103%
- cell viability (Calu-3 [10]; 10000 nM): 115%
- relative viability EC50 (U2OS [11]): > 10 µM
- relative viability EC50 (HepG2 [12]): > 10 µM
- relative viability EC50 (Caco-2 [13]): > 10 µM
- relative viability EC50 (Vero E6 [14]): > 10 µM
- relative viability EC50 (Calu-3 [15]): > 10 µM

Compound: CC(N)Cc1c[nH]c2ccc(OCc3cccs3)cc12 (stereo not given) [BW-723C86]
- drug sensitivity score (U2OS [1]): 0
- drug sensitivity score (HepG2 [2]): 1
- drug sensitivity score (Caco-2 [3]): 0
- drug sensitivity score (Vero E6 [4]): 0
- drug sensitivity score (Calu-3 [5]): 0.7
- cell viability (U2OS [6]; 1 nM): 102%
- cell viability (U2OS [6]; 10 nM): 98.2%
- cell viability (U2OS [6]; 100 nM): 99%
- cell viability (U2OS [6]; 1000 nM): 98.2%
- cell viability (U2OS [6]; 10000 nM): 96.9%
- cell viability (HepG2 [7]; 1 nM): 102%
- cell viability (HepG2 [7]; 10 nM): 107%
- cell viability (HepG2 [7]; 100 nM): 96.8%
- cell viability (HepG2 [7]; 1000 nM): 95.5%
- cell viability (HepG2 [7]; 10000 nM): 81%
- cell viability (Caco-2 [8]; 1 nM): 99.8%
- cell viability (Caco-2 [8]; 10 nM): 97.7%
- cell viability (Caco-2 [8]; 100 nM): 93%
- cell viability (Caco-2 [8]; 1000 nM): 94.8%
- cell viability (Caco-2 [8]; 10000 nM): 98.8%
- cell viability (Vero E6 [9]; 1 nM): 96%
- cell viability (Vero E6 [9]; 10 nM): 94.9%
- cell viability (Vero E6 [9]; 100 nM): 95.1%
- cell viability (Vero E6 [9]; 1000 nM): 96.1%
- cell viability (Vero E6 [9]; 10000 nM): 89.1%
- cell viability (Calu-3 [10]; 1 nM): 109%
- cell viability (Calu-3 [10]; 10 nM): 95.6%
- cell viability (Calu-3 [10]; 100 nM): 98.6%
- cell viability (Calu-3 [10]; 1000 nM): 104%
- cell viability (Calu-3 [10]; 10000 nM): 76.5%
- relative viability EC50 (U2OS [11]): > 10 µM
- relative viability EC50 (HepG2 [12]): > 10 µM
- relative viability EC50 (Caco-2 [13]): > 10 µM
- relative viability EC50 (Vero E6 [14]): > 10 µM
- relative viability EC50 (Calu-3 [15]): > 10 µM
